18 molecules from PubChem BioAssay AID256 (DTP/NCI, 2004) can be followed below.

Several values for one entry are separate records, joined by “and”; a condition that tells them apart may be missing. Equal entries are not always repeated. Toxic doses and inconclusive results are not listed. Non-standard residues stand in square brackets, D forms with d. Residues, ends and D or L forms follow the SMILES beside them. ξ: configuration not given here. *: point of attachment. ONp = O=[N+]([O-])c1ccc(O*)cc1; ξS = NC(CO)C(=O)O

This assay deals with CD2F1 mice, L1210 leukemia ip, survival T/C. Briefly: NCI In Vivo Anticancer Drug Screen. Data for tumor model L1210 Leukemia (intraperitoneal) in CD2F1 (CDF1) mice. To be noted: endpoint: mean survival time, higher = longer survival. In outline:
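Read-out first: treated-group measurement over vehicle-control measurement, expressed as a ratio. Animals bore a transplanted tumor line and were dosed with compound or vehicle.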

[1] abbreviates: dose: 12.5 mg/kg/injection, schedule: Q01DX009 (ip), vehicle: saline with Tween-80.
Where [2] appears, read: dose: 25.0 mg/kg/injection, schedule: Q01DX009 (ip), vehicle: saline with Tween-80.
[3] abbreviates: dose: 100.0 mg/kg/injection, schedule: Q04DX003 (ip), vehicle: other.
Setting [4] is: dose: 100.0 mg/kg/injection, schedule: Q04DX003 (ip), vehicle: saline with Tween-80.
The mark [5] stands for this setting: dose: 200.0 mg/kg/injection, schedule: Q04DX003 (ip), vehicle: saline with Tween-80.
The mark [6] stands for this setting: dose: 400.0 mg/kg/injection, schedule: Q04DX003 (ip), vehicle: saline with Tween-80.
[7] abbreviates: dose: 200.0 mg/kg/injection, schedule: Q04DX003 (ip), vehicle: other.
The mark [8] stands for this setting: dose: 400.0 mg/kg/injection, schedule: Q04DX003 (ip), vehicle: other.
The mark [9] stands for this setting: dose: 100.0 mg/kg/injection, schedule: Q01DX009 (ip), vehicle: saline with Tween-80.
Where [10] appears, read: dose: 200.0 mg/kg/injection, schedule: Q01DX009 (ip), vehicle: saline with Tween-80.
Setting [11] is: dose: 400.0 mg/kg/injection, schedule: Q01DX009 (ip), vehicle: saline with Tween-80.

For `COc1ccc([I+]c2ccccc2)cc1`, the T/C is 102 % of control (dose: 2.5 mg/kg/injection, schedule: Q01DX009 (ip), vehicle: saline sonified); 106 % of control (dose: 2.5 mg/kg/injection, schedule: Q04DX003 (ip), vehicle: saline with Tween-80); 106 % of control (dose: 5.0 mg/kg/injection, schedule: Q01DX009 (ip), vehicle: saline sonified); 98 % of control (dose: 5.0 mg/kg/injection, schedule: Q04DX003 (ip), vehicle: saline with Tween-80); 95 % of control (dose: 6.25 mg/kg/injection, schedule: Q01DX009 (ip), vehicle: saline with Tween-80); 93 % of control (dose: 6.25 mg/kg/injection, schedule: Q04DX003 (ip), vehicle: saline with Tween-80). Moreover, the T/C runs as follows: (dose: 10.0 mg/kg/injection, schedule: Q01DX009 (ip), vehicle: saline sonified) 95 % of control; (dose: 10.0 mg/kg/injection, schedule: Q04DX003 (ip), vehicle: saline with Tween-80) 104 % of control; under setting [1], 118 % of control; (dose: 12.5 mg/kg/injection, schedule: Q04DX003 (ip), vehicle: saline with Tween-80) 92 % of control; under setting [2], 120 % of control; (dose: 25.0 mg/kg/injection, schedule: Q04DX003 (ip), vehicle: saline with Tween-80) 104 % of control.
For the molecule `Oc1ccc(Cl)cc1Sc1cc(Cl)ccc1O`, under setting [3], the T/C was 108 % of control.
On to `O=C1NC(=S)S/C1=C\c1ccc(Cl)c(Cl)c1`, for which the T/C by setting is: under setting [4], 106 % of control; under setting [5], 94 % of control; under setting [6], 97 % of control.
In the case of `O=[N+]([O-])c1ccc(S(=O)Cc2ccccc2)c([N+](=O)[O-])c1` (stereo not drawn), under “dose: 75.0 mg/kg/injection, schedule: Q01DX001 (ip), vehicle: other”, the T/C was 100 % of control.
Turning to `N=c1ncn(C2OC(COP(=O)(O)O)C(O)C2O)c2nc[nH]c12` (stereo not drawn), the T/C is, setting by setting: (dose: 0.78 mg/kg/injection, schedule: Q01DX005 (ip), vehicle: water) 102 % of control; (dose: 1.56 mg/kg/injection, schedule: Q01DX005 (ip), vehicle: water) 110 % of control; (dose: 3.13 mg/kg/injection, schedule: Q01DX005 (ip), vehicle: water) 105 % of control; (dose: 6.25 mg/kg/injection, schedule: Q01DX005 (ip), vehicle: water) 111 % of control; (dose: 11.3 mg/kg/injection, schedule: Q01DX005 (ip), vehicle: water) 98 % of control; (dose: 12.5 mg/kg/injection, schedule: Q01DX005 (ip), vehicle: water) 102 % of control. Besides, the T/C runs as follows: (dose: 22.5 mg/kg/injection, schedule: Q01DX005 (ip), vehicle: water) 98 % of control; (dose: 45.0 mg/kg/injection, schedule: Q01DX005 (ip), vehicle: water) 102 % of control.
For the molecule `NC(CO)C(=O)NCC(=O)Oc1ccc([N+](=O)[O-])cc1` (stereo not drawn) (H-[ξS]-Gly-ONp), the T/C is 100 % of control (dose: 75.0 mg/kg/injection, schedule: Q01DX001 (ip), vehicle: saline); 102 % of control (dose: 150.0 mg/kg/injection, schedule: Q01DX001 (ip), vehicle: saline); 96 % of control (dose: 300.0 mg/kg/injection, schedule: Q01DX001 (ip), vehicle: saline).
Take `Cc1ccccc1NCc1ccccc1`: the T/C was 101 % of control under setting [3], 103 % of control under setting [7] and 100 % of control under setting [8].
Regarding `ICC1CCC(CI)CC1` (stereo not drawn), the T/C is, setting by setting: (dose: 100.0 mg/kg/injection, schedule: Q01DX001 (ip), vehicle: saline) 98 % of control; (dose: 200.0 mg/kg/injection, schedule: Q01DX001 (ip), vehicle: saline) 96 % of control; (dose: 400.0 mg/kg/injection, schedule: Q01DX001 (ip), vehicle: saline) 93 % of control.
For the molecule `CCOC(=O)CCC(NC(=O)c1ccc(N(C=O)CCOC=O)cc1)C(=O)OCC` (stereo not drawn), the T/C was 97 % of control under setting [4], 96 % of control under setting [5] and 96 % of control under setting [6].
Turning to `Cc1ccc(C#CC(C)(C)O)cn1`, the T/C reads like this: under setting [9], 94 % of control; under setting [10], 102 % of control; under setting [11], 122 % of control.
For the molecule `CCSC(C(O)C(O)C(O)C(O)CO)n1cnc2c(=S)nc[nH]c21` (stereo not drawn), the T/C reads like this: (dose: 25.0 mg/kg/injection, schedule: Q01DX005 (ip), vehicle: water) 94 % of control; (dose: 50.0 mg/kg/injection, schedule: Q01DX005 (ip), vehicle: water) 97 % of control; (dose: 100.0 mg/kg/injection, schedule: Q01DX005 (ip), vehicle: water) 96 % of control; (dose: 177.0 mg/kg/injection, schedule: Q01DX009 (ip), vehicle: saline with Tween-80) 107 % of control; (dose: 200.0 mg/kg/injection, schedule: Q01DX005 (ip), vehicle: water) 96 % of control; (dose: 265.0 mg/kg/injection, schedule: Q01DX009 (ip), vehicle: saline with Tween-80) 102 % of control. For the setting “dose: 600.0 mg/kg/injection, schedule: Q01DX009 (ip), vehicle: saline with Tween-80”, the T/C was 150 % of control.
As to `FC(F)(F)c1ccc2c(c1)N(CCCN(CCCl)CCCl)c1ccccc1S2`, the T/C (dose: 18.0 mg/kg/injection, schedule: Q01DX001 (ip), vehicle: saline) was 100 % of control and the T/C (dose: 28.0 mg/kg/injection, schedule: Q01DX001 (ip), vehicle: saline) was 111 % of control.
For `COC(=C\c1ccccc1)/C(=N/Nc1ccc([N+](=O)[O-])cc1[N+](=O)[O-])c1ccccc1`, the T/C was 101 % of control (dose: 100.0 mg/kg/injection, schedule: Q01DX001 (ip), vehicle: saline with Tween-80); 109 % of control (dose: 200.0 mg/kg/injection, schedule: Q01DX001 (ip), vehicle: saline with Tween-80); 109 % of control (dose: 400.0 mg/kg/injection, schedule: Q01DX001 (ip), vehicle: saline with Tween-80).
Turning to `CCCCCCCCCCCCCCCC(=O)N(CCCN(C)C)c1ccc(N(CCCN(C)C)C(=O)CCCCCCCCCCCCCCC)cc1`, the T/C was 98 % of control (dose: 1.5 mg/kg/injection, schedule: Q01DX009 (ip), vehicle: saline sonified); 101 % of control (dose: 3.0 mg/kg/injection, schedule: Q01DX009 (ip), vehicle: saline sonified); 98 % of control (dose: 6.0 mg/kg/injection, schedule: Q01DX009 (ip), vehicle: saline sonified).
As to `O=C(O)c1ccccc1C(=O)N1CCCCC1`, the T/C was 94 % of control (dose: 12.5 mg/kg/injection, schedule: Q04DX002 (ip), vehicle: saline with Tween-80); 90 % of control (dose: 25.0 mg/kg/injection, schedule: Q04DX002 (ip), vehicle: saline with Tween-80); 110 % of control (dose: 50.0 mg/kg/injection, schedule: Q04DX002 (ip), vehicle: saline with Tween-80).
Consider `Cc1ccc(CNc2ccccc2)cc1`, for which the T/C reads like this: (dose: 12.5 mg/kg/injection, schedule: Q01DX009 (ip), vehicle: other) 103 % of control; (dose: 25.0 mg/kg/injection, schedule: Q01DX009 (ip), vehicle: other) 108 % of control; (dose: 50.0 mg/kg/injection, schedule: Q01DX009 (ip), vehicle: other) 96 % of control; under setting [3], 97 % of control; under setting [7], 89 % of control and 102 % of control; under setting [8], 88 % of control and 96 % of control.
Regarding `O=[N+]([O-])c1cc(S(=O)(=O)F)ccc1Cl`, the T/C runs as follows: under setting [1], 100 % of control; under setting [2], 94 % of control; (dose: 50.0 mg/kg/injection, schedule: Q01DX009 (ip), vehicle: saline with Tween-80) 97 % of control and 103 % of control.
As to `CCCCNC(=O)CCC(=O)O`, the T/C was 109 % of control under setting [9]; 99 % of control under setting [4]; 94 % of control under setting [10]; 99 % of control under setting [5]; 96 % of control under setting [11]; 95 % of control under setting [6].
